Data taken from patent US9067898B1, “Isothiazole derivatives as GPR120 agonists for the treatment of type II diabetes” (Janssen Pharmaceutica NV, priority 2014, dated 2015).

What was measured:
[1] = target: T1, long form of human GPR120 (Homo sapiens, UniProt Q5NUL3); assay: Human GPR120 DiscoveRx PathHunter Beta-Arrestin assay, Procedure β-arrestin A; type: cell-based; details: PathHunter CHO-K1 GPR120 β-Arrestin cell line, 3000 cells per well, read-out: hGPR120 β-arrestin A EC50
T1 construct: host or cells: PathHunter CHO-K1 GPR120 β-Arrestin Cell Line
T1 sequence (Q5NUL3 1-377 isoform Q5NUL3-1): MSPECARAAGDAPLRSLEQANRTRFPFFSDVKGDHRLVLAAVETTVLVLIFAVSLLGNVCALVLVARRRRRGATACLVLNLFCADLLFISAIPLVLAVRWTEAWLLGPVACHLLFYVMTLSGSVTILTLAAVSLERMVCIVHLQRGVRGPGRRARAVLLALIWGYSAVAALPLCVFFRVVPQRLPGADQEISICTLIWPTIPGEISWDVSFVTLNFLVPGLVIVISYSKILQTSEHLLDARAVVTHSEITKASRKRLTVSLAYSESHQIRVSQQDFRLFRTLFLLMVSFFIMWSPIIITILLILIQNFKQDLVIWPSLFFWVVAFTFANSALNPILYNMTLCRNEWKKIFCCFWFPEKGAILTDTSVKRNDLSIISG
T1 sequence (P32121 whole entry partner): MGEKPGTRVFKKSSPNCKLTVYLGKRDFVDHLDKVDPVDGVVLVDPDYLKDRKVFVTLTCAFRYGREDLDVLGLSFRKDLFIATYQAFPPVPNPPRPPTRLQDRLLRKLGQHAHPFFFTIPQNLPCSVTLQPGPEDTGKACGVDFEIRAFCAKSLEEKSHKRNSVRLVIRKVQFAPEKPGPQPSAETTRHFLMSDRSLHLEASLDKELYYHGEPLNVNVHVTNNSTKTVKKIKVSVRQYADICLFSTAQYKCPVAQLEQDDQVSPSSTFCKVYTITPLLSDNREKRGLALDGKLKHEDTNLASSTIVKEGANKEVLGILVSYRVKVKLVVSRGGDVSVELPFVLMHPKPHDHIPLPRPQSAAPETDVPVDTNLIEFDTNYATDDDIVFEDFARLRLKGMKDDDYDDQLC
How it was run: (§1)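 PathHunter CHO-K1 β-arrestin cells expressed long-form GPR120 (Procedure A, 3000 cells/well) or short-form GPR120 (Procedure B, 5000 cells/well). Compounds were serially diluted from 25 µM and incubated 90 min at 37 °C in HBSS/20 mM HEPES/0.1% BSA, pH 7.4. Luminescence was read after 60 min detection at RT; EC50 comes from % activity versus positive control, Hill slope fixed at 1.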

[2] = target: T2, short form of the GPR120 receptor (GPR120S) (Homo sapiens, UniProt Q5NUL3); assay: Human GPR120 DiscoveRx PathHunter Beta-Arrestin assay, Procedure β-arrestin B; type: cell-based; details: PathHunter CHO-K1 GPR120S β-Arrestin cell line, 5000 cells/well, read-out: hGPR120 β-arrestin B EC50
T2 construct: host or cells: PathHunter CHO-K1 GPR120S β-Arrestin Cell Line
T2 sequence (Q5NUL3 whole entry): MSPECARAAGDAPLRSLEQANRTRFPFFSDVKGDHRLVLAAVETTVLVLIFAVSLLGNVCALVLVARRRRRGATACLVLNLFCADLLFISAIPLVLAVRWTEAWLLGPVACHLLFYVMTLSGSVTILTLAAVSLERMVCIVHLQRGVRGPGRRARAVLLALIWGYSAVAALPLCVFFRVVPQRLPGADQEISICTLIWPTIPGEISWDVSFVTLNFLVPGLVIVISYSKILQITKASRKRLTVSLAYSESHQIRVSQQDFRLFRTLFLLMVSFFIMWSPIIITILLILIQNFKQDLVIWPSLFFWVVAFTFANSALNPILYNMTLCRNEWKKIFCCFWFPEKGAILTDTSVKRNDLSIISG
T2 sequence (P32121 whole entry partner): as the sequence (P32121 whole entry partner) above
How it was run: as §1

Q: For “3-(4-[[3-(4-chlorophenyl)-5-(trifluoromethyl)-1,2-thiazol-4-yl]methoxy]-3-methylphenyl)propanoic acid [Cpd 235]”, which EC50 [1] is on record?
A: Its EC50 is 431 nM.

Q: What about the EC50 [2] of the same compound?
A: The EC50 was 322 nM.

Q: For “3-(4-[[3-(4-ethylphenyl)-5-(trifluoromethyl)-1,2-thiazol-4-yl]methoxy]-1-benzothiophen-7-yl)propanoic acid [Cpd 92]”, which EC50 [1] is on record?
A: The EC50 was 28 nM.

Q: What about the EC50 [2] of the same compound?
A: Its EC50 is 31 nM.

Q: With “3-(4-[[3-(4-ethylphenyl)-5-(trifluoromethyl)-1,2-thiazol-4-yl]methoxy]-3,5-difluorophenyl)propanoic acid [Cpd 70]” as the compound, how does the EC50 [1] read?
A: Its EC50 is 97 nM.

Q: What about the EC50 [2] of the same compound?
A: Its EC50 is 68 nM.

Q: `CCc1ccc(-c2cc(F)sc2COc2ccc(CCC(=O)O)c(C)c2C)cc1` [Cpd 1, 3-(4-[[3-(4-ethylphenyl)-5-fluorothiophen-2-yl]methoxy]-2,3-dimethylphenyl)propanoic acid] was tested. Which EC50 [1] did it give?
A: The EC50 was 218 nM.

Q: And the EC50 [2]?
A: The EC50 was 205 nM.

Q: How did the EC50 [2] turn out when `Cc1c(CCC(=O)O)ccc(OCc2sc(F)cc2-c2ccc(Cl)cc2)c1C` [Cpd 3, 3-(4-((3-(4-chlorophenyl)-5-fluorothiophen-2-yl)methoxy)-2,3-dimethylphenyl)propanoic acid] was run?
A: Its EC50 is 83 nM.

Q: With `OCCCc1cc(F)c(OCc2c(-c3ccc4c(c3)OCO4)csc2C(F)(F)F)c(F)c1` [Cpd 37, 3-(4-((4-(benzo[d][1,3]dioxol-5-yl)-2-(trifluoromethyl)thiophen-3-yl)methoxy)-3,5-difluorophenyl)propan-1-ol] as the compound, how does the EC50 [1] read?
A: The EC50 was 57 nM.

Q: What about the EC50 [2] of the same compound?
A: The EC50 was 22 nM.

Q: Which results are given for `Cc1ccc(-c2nsc(C(F)(F)F)c2COc2c(F)cc(CCC(=O)O)cc2F)c(F)c1` [Cpd 65, 3-(3,5-difluoro-4-[[3-(2-fluoro-4-methylphenyl)-5-(trifluoromethyl)-1,2-thiazol-4-yl]methoxy]phenyl)propanoic acid]?
A: EC50 [1]: 168 nM; EC50 [2]: 126 nM

Q: Which EC50 [1] does the source give for `O=C(O)CCc1cc(F)c(OCc2c(-c3ccc(Cl)c(F)c3)nsc2C(F)(F)F)c(F)c1` [Cpd 67, 3-(4-((3-(4-chloro-3-fluorophenyl)-5-(trifluoromethyl)isothiazol-4-yl)methoxy)-3,5-difluorophenyl)propanoic acid] here?
A: Its EC50 is 86 nM.

Q: What about the EC50 [2] of the same compound?
A: The EC50 was 43 nM.

Q: Which results are given for `O=C(O)CCc1cc(F)c(OCc2c(C3CCCC3)nsc2C(F)(F)F)c(F)c1` [Cpd 71, 3-(4-[[3-cyclopentyl-5-(trifluoromethyl)-1,2-thiazol-4-yl]methoxy]-3,5-difluorophenyl)propanoic acid]?
A: EC50 [1]: 278 nM; EC50 [2]: 139 nM

Q: How did the EC50 [1] turn out when `CCc1ccc(-c2nsc(C(F)(F)F)c2COc2ccc(CCC(=O)O)c(F)c2F)cc1` [Cpd 73, 3-(4-((3-(4-ethylphenyl)-5-(trifluoromethyl)isothiazol-4-yl)methoxy)-2,3-difluorophenyl)propanoic acid] was run?
A: Its EC50 is 134 nM.

Q: What does the source list for `O=C(O)CCc1cc(F)c(OCc2c(-c3ccc(Cl)cc3F)nsc2C(F)(F)F)c(F)c1` [Cpd 74, 3-(4-((3-(4-chloro-2-fluorophenyl)-5-(trifluoromethyl)isothiazol-4-yl)methoxy)-3,5-difluorophenyl)propanoic acid]?
A: EC50 [1]: 143 nM; EC50 [2]: 63 nM

Q: `Cc1ccc(-c2nsc(C(F)(F)F)c2COc2c(F)cc(CC(C)C(=O)O)cc2F)c(F)c1` (centres unmarked) [Cpd 76, 3-(3,5-difluoro-4-[[3-(2-fluoro-4-methylphenyl)-5-(trifluoromethyl)-1,2-thiazol-4-yl]methoxy]phenyl)-2-methylpropanoic acid] was tested. Which EC50 [2] did it give?
A: Its EC50 is 179 nM.

Q: For `O=C(O)CCc1cc(F)c(OCc2c(-c3ccc(Cl)cc3)nsc2C(F)(F)F)c(F)c1` [Cpd 79, 3-(4-[[3-(4-chlorophenyl)-5-(trifluoromethyl)-1,2-thiazol-4-yl]methoxy]-3,5-difluorophenyl)propanoic acid], which EC50 [1] is on record?
A: Its EC50 is 71 nM.

Q: What about the EC50 [2] of the same compound?
A: The EC50 was 62 nM.

Q: With `CCc1ccc(-c2snc(Cl)c2COc2ccc(CCC(=O)O)c(C)c2C)cc1` [Cpd 85, 3-(4-[[3-chloro-5-(4-ethylphenyl)-1,2-thiazol-4-yl]methoxy]-2,3-dimethylphenyl)propanoic acid] as the compound, how does the EC50 [1] read?
A: Its EC50 is 166 nM.

Q: What does the source list for `OCCCc1cc(F)c(OCc2c(-c3ccc4c(c3)OCO4)nsc2C(F)(F)F)c(F)c1` [Cpd 93, 3-(4-[[3-(2H-1,3-benzodioxol-5-yl)-5-(trifluoromethyl)-1,2-thiazol-4-yl]methoxy]-3,5-difluorophenyl)propan-1-ol]?
A: EC50 [1]: 38 nM; EC50 [2]: 27 nM

Q: With `OCCCc1cc(F)c(OCc2c(-c3ccc(Cl)cc3)nsc2C(F)(F)F)c(F)c1` [Cpd 100, 3-(4-[[3-(4-chlorophenyl)-5-(trifluoromethyl)-1,2-thiazol-4-yl]methoxy]-3,5-difluorophenyl)propan-1-ol] as the compound, how does the EC50 [1] read?
A: Its EC50 is 97 nM.

Q: How did the EC50 [1] turn out when `OCCCc1ccc(OCc2c(Cl)nsc2-c2ccc(Cl)cc2)c(F)c1F` [Cpd 102, 3-(4-((3-chloro-5-(4-chlorophenyl)isothiazol-4-yl)methoxy)-2,3-difluorophenyl)propan-1-ol] was run?
A: The EC50 was 40 nM.

Q: With `CC(Cc1cc(F)c(OCc2c(-c3ccc(Cl)cc3)nsc2C(F)(F)F)c(F)c1)C(=O)O` (centres unmarked) [Cpd 108, 3-(4-[[3-(4-chlorophenyl)-5-(trifluoromethyl)-1,2-thiazol-4-yl]methoxy]-3,5-difluorophenyl)-2-methylpropanoic acid] as the compound, how does the EC50 [1] read?
A: Its EC50 is 261 nM.

Q: And the EC50 [2]?
A: The EC50 was 162 nM.

Q: Which EC50 [1] does the source give for `O=C(O)CCc1cc(F)c(OCc2c(-c3ccc(Cl)cc3)nsc2C(F)(F)F)c(F)c1F` [Cpd 116, 3-(4-((3-(4-chlorophenyl)-5-(trifluoromethyl)isothiazol-4-yl)methoxy)-2,3,5-trifluorophenyl)propanoic acid] here?
A: The EC50 was 112 nM.

Q: What about the EC50 [2] of the same compound?
A: Its EC50 is 88 nM.

Q: `Cc1c(CCC(=O)O)ccc(OCc2c(-c3ccccc3)nsc2C(F)(F)F)c1C` [Cpd 134, 3-(2,3-dimethyl-4-[[3-phenyl-5-(trifluoromethyl)-1,2-thiazol-4-yl]methoxy]phenyl)propanoic acid] was tested. Which EC50 [1] did it give?
A: Its EC50 is 252 nM.

Q: What about the EC50 [2] of the same compound?
A: Its EC50 is 409 nM.

Q: With `O=C(O)CCc1cc(F)c(OCc2c(-c3ccc(Cl)c(F)c3)nsc2C(F)(F)F)c(F)c1F` [Cpd 138, 3-(4-((3-(4-chloro-3-fluorophenyl)-5-(trifluoromethyl)isothiazol-4-yl)methoxy)-2,3,5-trifluorophenyl)propanoic acid] as the compound, how does the EC50 [1] read?
A: The EC50 was 114 nM.

Q: And the EC50 [2]?
A: The EC50 was 161 nM.

Q: Which EC50 [1] does the source give for `Cc1c(CCC(=O)O)ccc(OCc2c(-c3ccc(Cl)cc3)nsc2C(F)(F)F)c1C` [Cpd 142, 3-(4-((3-(4-chlorophenyl)-5-(trifluoromethyl)isothiazol-4-yl)methoxy)-2,3-dimethylphenyl)propanoic acid] here?
A: The EC50 was 141 nM.

Q: What about the EC50 [2] of the same compound?
A: Its EC50 is 100 nM.

Q: With `O=C(O)CCc1c(F)c(F)c(OCc2c(-c3ccc(Cl)cc3)nsc2C(F)(F)F)c(F)c1F` [Cpd 152, 3-(4-((3-(4-chlorophenyl)-5-(trifluoromethyl)isothiazol-4-yl)methoxy)-2,3,5,6-tetrafluorophenyl)propanoic acid] as the compound, how does the EC50 [1] read?
A: The EC50 was 183 nM.

Q: What about the EC50 [2] of the same compound?
A: Its EC50 is 183 nM.

Q: How did the EC50 [1] turn out when `O=C(O)CCc1cc(F)c(OCc2c(-c3ncc(Cl)cc3F)nsc2C(F)(F)F)c(F)c1` [Cpd 153, 3-(4-((3-(5-chloro-3-fluoropyridin-2-yl)-5-(trifluoromethyl)isothiazol-4-yl)methoxy)-3,5-difluorophenyl)propanoic acid] was run?
A: Its EC50 is 189 nM.

Q: And the EC50 [2]?
A: Its EC50 is 104 nM.

Q: What does the source list for `CCc1cc(CCC(=O)O)ccc1OCc1c(-c2ccc(Cl)cc2)nsc1C(F)(F)F` [Cpd 162, 3-(4-[[3-(4-chlorophenyl)-5-(trifluoromethyl)-1,2-thiazol-4-yl]methoxy]-3-ethylphenyl)propanoic acid]?
A: EC50 [1]: 156 nM; EC50 [2]: 54 nM

Q: How did the EC50 [1] turn out when `Cc1c(CCC(=O)O)ccc(OCc2c(-c3ncc(Cl)cc3F)nsc2C(F)(F)F)c1C` [Cpd 180, 3-(4-((3-(5-chloro-3-fluoropyridin-2-yl)-5-(trifluoromethyl)isothiazol-4-yl)methoxy)-2,3-dimethylphenyl)propanoic acid] was run?
A: The EC50 was 568 nM.

Q: And the EC50 [2]?
A: The EC50 was 294 nM.

Q: Which EC50 [1] does the source give for `Cc1ccccc1-c1snc(Cl)c1COc1c(F)cc(CCC(=O)O)cc1F` [Cpd 193, 3-(4-[[3-chloro-5-(2-methylphenyl)-1,2-thiazol-4-yl]methoxy]-3,5-difluorophenyl)propanoic acid] here?
A: Its EC50 is 322 nM.

Q: What about the EC50 [2] of the same compound?
A: The EC50 was 990 nM.

Q: Which results are given for `OCC#Cc1cc(F)c(OCc2c(-c3ccc(Cl)cc3)nsc2C(F)(F)F)c(F)c1` [Cpd 213, 3-(4-[[3-(4-chlorophenyl)-5-(trifluoromethyl)-1,2-thiazol-4-yl]methoxy]-3,5-difluorophenyl)prop-2-yn-1-ol]?
A: EC50 [1]: 59 nM; EC50 [2]: 87 nM
